Non-standard residues stand in square brackets, D forms with d. Residues, ends and D or L forms follow the SMILES beside them. *: point of attachment. Phe(4-Cl) = N[C@@H](Cc1ccc(Cl)cc1)C(=O)O; hArg = N=C(N)NCCCC[C@H](N)C(=O)O; 12Ado = NCCCCCCCCCCCC(=O)O; Nle = CCCC[C@H](N)C(=O)O; Orn = NCCC[C@H](N)C(=O)O; Abu = CC[C@H](N)C(=O)O; PhAc = O=C(Cc1ccccc1)*
Key:
Format in all cases: cell-based, human
Details in all cases: 5 μM, 72 h; relative to MIA602 = 1; Table 3A
[1] = system: NCI-N87 cells; assay: In vitro cell viability (CellTiter 96), stomach cancer N87
Protocol: (§1) The inhibitory effects of the various synthesized GHRH antagonists were tested in cell proliferation assays in various human cancer cell lines including stomach cancer (KATOIII, N87), colon cancer (HT-29), urothelial cancer (J82, RT4), pancreatic cancer (PANC-1, CFPAC-1), prostatic cancer (PC3), breast cancer (MX-1, HCC1806), ovarian cancer (SK-OV-3, OVCAR-3) and lung cancer (HCC827, H460).
(§2) Cell culture. Human cancer cell lines including pancreatic (PANC-1 and CFPAC-1), lung (HCC827 and H460), stomach (NCI-N87 and KATOIII), urothelial (J82, RT4), prostatic (PC3), breast (MX-1 and HCC 1806), colorectal (HT-29), and ovarian (SK-OV-3 and OVCAR-3) were obtained from the American Type Culture Collection (ATCC) and cultured at 37° C. in a humidified 95% air/5% CO2 atmosphere in the medium recommended by ATCC.
(§3) In vitro cell viability. Cell viability was analyzed as follows: cancer cells including pancreatic (PANC-1 and CFPAC-1), lung (HCC827 and H460), stomach (NCI-N87 and KATOIII), urothelial (J82, RT4), prostatic (PC3) and breast (MX-1 and HCC 1806), colorectal (HT-29) and ovarian (SK-OV-3 and OVCAR-3) were grown on 96 well plates to ˜60% confluence, the cells were starved for 24 h in culture medium containing 0.5% FBS. Cells were then treated with GHRH antagonists MIA602 AVR compounds at concentrations of 1, 2.5 or 5 μM, or vehicle (0.1% DMSO) in quintuplicates for 72 hours. The medium was replaced every 48 hours. Cell viability was measured using CellTiter 96 aqueous one solution kit (Promega). Inhibitory effects of tested AVR compounds in comparison to that of MIA602 are presented as inhibitory potency.
(§4) Inhibitory effects of selected AVR compounds in comparison to that of MIA602 are presented as inhibitory potency (e.g., percentage of inhibition). […] The cell lines tested including lung cancer HCC827 (FIG. 2A), pancreatic cancer CFPAC-1 (FIG. 2B), stomach cancer N87 (FIG. 2C), colon cancer HT-29 (FIG. 2D), breast cancers MX-1 and HCC1806 (FIGS. 2E, F). Based on the results of cell proliferation assay after cancer cells were treated with antagonist at concentration of 5 μM for 72H, the relative inhibitory potency of AVR antagonists in comparison to MIA-602 is summarized in Table 3 A and B. Over 60 AVR compounds were tested in 12 cancer cell lines.
(§5) Based on the results of cell proliferation assay after cancer cells were treated with antagonist at concentration of 5 µM for 72H, * at concentration of 2 µM for 72 H.

[2] = system: HCC827 cells; assay: In vitro cell viability, lung cancer HCC827
Method in brief: (§6)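 Cells grown to ~60% confluence and serum-starved 24 h in 0.5% FBS, then exposed to antagonists at 5 μM (some at 2 μM) for 72 h in quintuplicate, with medium replaced every 48 h. Viability read by CellTiter 96 AQueous One (MTS). Values are inhibition relative to MIA602.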

[3] = system: HCC1806 cells; assay: In vitro cell viability, breast cancer HCC1806
Protocol: as §1, §2, §3, §4, §5

[4] = system: MX-1 cells; assay: In vitro cell viability, breast cancer MX-1
Protocol: as §1, §2, §3, §4, §5

[5] = system: J82 cells; assay: In vitro cell viability, urothelial cancer J82
Protocol: as §1, §2, §3, §4

[6] = system: PANC-1 cells; assay: In vitro cell viability, pancreatic cancer PANC-1
Protocol: as §1, §2, §3, §4

[7] = system: CFPAC-1 cells; assay: In vitro cell viability, pancreatic cancer CFPAC-1
Method in brief: as §6

[8] = system: KATOIII cells; assay: In vitro cell viability, stomach cancer KATOIII
Protocol: as §1, §2, §3, §4

[9] = system: RT4 cells; assay: In vitro cell viability, urothelial cancer RT4
Protocol: as §1, §2, §3
(§7) Inhibitory effects of selected AVR compounds in comparison to that of MIA602 are presented as inhibitory potency (e.g., percentage of inhibition). […] The cell lines tested including lung cancer HCC827 (FIG. 2A), pancreatic cancer CFPAC-1 (FIG. 2B), stomach cancer N87 (FIG. 2C), colon cancer HT-29 (FIG. 2D), breast cancers MX-1 and HCC1806 (FIGS. 2E, F). […]

[10] = system: PC3 cells; assay: In vitro cell viability, prostatic cancer PC3
Protocol: as §1, §2, §3, §7

| SMILES | Relative inhibitory potency, Stomach N87 [1] | Relative inhibitory potency, Lung HCC827 [2] | Relative inhibitory potency, Breast HCC1806 [3] | Relative inhibitory potency, Breast MX-1 [4] | Relative inhibitory potency, Urothelial J82 [5] | Relative inhibitory potency, Pancreatic Panc-1 [6] | Relative inhibitory potency, Pancreatic CFPAC-1 [7] | Relative inhibitory potency, Stomach KATOIII [8] | Relative inhibitory potency, Urothelial RT4 [9] | Relative inhibitory potency, Prostatic PC3 [10] |
| --- | --- | --- | --- | --- | --- | --- | --- | --- | --- | --- |
| CCCC[C@H](NC(=O)[C@@H](NC(=O)[C@H](CC(=O)O)NC(=O)[C@H](CCC(N)=O)NC(=O)[C@H](CC(C)C)NC(=O)[C@H](CC(C)C)NC(=O)[C@H](CCCN)NC(=O)[C@H](Cc1c[nH]cn1)NC(=O)[C@H](C)NC(=O)[C@H](CO)NC(=O)[C@H](CC(C)C)NC(=O)[C@H](CCC(N)=O)NC(=O)[C@H](CC)NC(=O)[C@H](CC(C)C)NC(=O)[C@@H](NC(=O)[C@H](CCCCN)NC(=O)[C@H](CCCNC(=N)N)NC(=O)[C@H](Cc1ccc(OC)cc1)NC(=O)[C@H](CCCNC(=N)N)NC(=O)[C@H](C)NC(=O)[C@@H](NC(=O)[C@H](Cc1ccc(Cl)cc1)NC(=O)[C@@H](NC(=O)[C@H](C)NC(=O)[C@H](CC(=O)O)NC(=O)[C@@H](CCCNC(=N)N)NC(=O)[C@H](Cc1ccc(O)cc1)NC(=O)CCCCCCCCCCCNC(=O)Cc1ccccc1)[C@@H](C)CC)[C@@H](C)O)C(C)C)[C@@H](C)CC)C(=O)N[C@H](CCCNC(=N)N)C(=O)N[C@@H](CCCCNC(=N)N)C(N)=O [AVR-104, PhAC-Ada-Tyr-DArg-Asp-Ala-Ile-Cpa-Thr-Ala-Arg-Tyr(Me)-Arg-Lys-Val-Leu-Abu-Gln-Leu-Ser-Ala-His-Orn-Leu-Leu-Gln-Asp-Ile-Nle-DArg-Har-NH2] ({PhAc-12Ado}-Y[dR]DAI[Phe(4-Cl)]TARY(Me)RKVL[Abu]QLSAH[Orn]LLQDI[Nle][dR][hArg]-NH2) | 2.291 | 1.525 | 1.220 | 1.310 | 3.377 | 1.114 | 1.502 | 1.321 | 1.697 | 1.440 |
| CCCC[C@H](NC(=O)[C@@H](NC(=O)[C@H](CC(=O)O)NC(=O)[C@H](CCC(N)=O)NC(=O)[C@H](CC(C)C)NC(=O)[C@H](CC(C)C)NC(=O)[C@H](CCCCN)NC(=O)[C@H](CCCNC(=N)N)NC(=O)[C@H](C)NC(=O)[C@H](CO)NC(=O)[C@H](CC(C)C)NC(=O)[C@H](CCC(N)=O)NC(=O)[C@H](CC)NC(=O)[C@H](CC(C)C)NC(=O)[C@@H](NC(=O)[C@H](CCCCN)NC(=O)[C@H](CCCNC(=N)N)NC(=O)[C@H](Cc1ccc(O)cc1)NC(=O)[C@H](CCCNC(=N)N)NC(=O)[C@H](C)NC(=O)[C@@H](NC(=O)[C@H](Cc1ccc(Cl)cc1)NC(=O)[C@@H](NC(=O)[C@H](C)NC(=O)[C@H](CC(=O)O)NC(=O)[C@@H](CCCNC(=N)N)NC(=O)[C@H](Cc1ccc(O)cc1)NC(=O)CCCCCCCCCCCNC(=O)Cc1ccccc1)[C@@H](C)CC)[C@@H](C)O)C(C)C)[C@@H](C)CC)C(=O)N[C@H](CCCNC(=N)N)C(=O)N[C@@H](CCCCNC(=N)N)C(N)=O [AVR-107, PhAC-Ada-Tyr-DArg-Asp-Ala-Ile-Cpa-Thr-Ala-Arg-Tyr-Arg-Lys-Val-Leu-Abu-Gln-Leu-Ser-Ala-Arg-Lys-Leu-Leu-Gln-Asp-Ile-Nle-DArg-Har-NH2] ({PhAc-12Ado}-Y[dR]DAI[Phe(4-Cl)]TARYRKVL[Abu]QLSARKLLQDI[Nle][dR][hArg]-NH2) | – | – | 0.950 | 1.010 | – | 1.160 | 1.080 | 1.295 | – | 0.800 |
| CCCC[C@H](NC(=O)[C@@H](NC(=O)[C@H](CC(=O)O)NC(=O)[C@H](CCC(N)=O)NC(=O)[C@H](CC(C)C)NC(=O)[C@H](CC(C)C)NC(=O)[C@H](CCCN)NC(=O)[C@H](Cc1c[nH]cn1)NC(=O)[C@H](C)NC(=O)[C@H](CO)NC(=O)[C@H](CC(C)C)NC(=O)[C@H](CCC(N)=O)NC(=O)[C@H](CC)NC(=O)[C@H](CC(C)C)NC(=O)[C@@H](NC(=O)[C@H](CCCCN)NC(=O)[C@H](CCCNC(=N)N)NC(=O)[C@H](Cc1ccc(OC)cc1)NC(=O)[C@H](CCCNC(=N)N)NC(=O)[C@H](C)NC(=O)[C@@H](NC(=O)[C@H](Cc1ccc(Cl)cc1)NC(=O)[C@@H](NC(=O)[C@H](C)NC(=O)[C@H](CC(=O)O)NC(=O)[C@@H](CCCNC(=N)N)NC(=O)[C@H](Cc1ccc(O)cc1)NC(=O)CCCCCCCCCCCNC(=O)[C@H](N)Cc1ccccc1)[C@@H](C)CC)[C@@H](C)O)C(C)C)[C@@H](C)CC)C(=O)N[C@H](CCCNC(=N)N)C(=O)N[C@@H](CCCCNC(=N)N)C(N)=O [AVR-120, D-Phe-Ada-Tyr-DArg-Asp-Ala-Ile-Cpa-Thr-Ala-Arg-Tyr(Me)-Arg-Lys-Val-Leu-Abu-Gln-Leu-Ser-Ala-His-Orn-Leu-Leu-Gln-Asp-Ile-Nle-DArg-Har-NH2] (H-[dF][12Ado]Y[dR]DAI[Phe(4-Cl)]TARY(Me)RKVL[Abu]QLSAH[Orn]LLQDI[Nle][dR][hArg]-NH2; N-terminus assumed) | 2.339 | 1.423 | – | – | 4.841 | 1.306 | 1.617 | 1.271 | 1.611 | – |

Reference: patent publication US11993640B2, “Treating inflammatory lung disease” (United States Government as represented by the Department …, priority 2019, dated 2024)
